Legend:
HLA-A0201 = biological target: T1, HLA-A0201 (Homo sapiens, UniProt P04439, D140Y/D185E/D98H/E176V/E277Q/G131W/G231S/I119V/I121R/I166T/I218V/L300P/L318F/N151K/N90K/P208A/P217A/Q86G/Q94H/R138H/R169H/T345S); assay: T2 affinity verification of the polypeptides for HLA-A0201 by flow cytometry; format: binding; settings: T2 affinity test
T1 construct: T2 cell expresses HLA-A0201; host or cells: T2 cells
Description: 2 duplicate wells per group were used. […] The cells were collected by centrifugation at 200 g for 5 minutes. After the collected cells were washed twice with PBS (Cat. No. 10010-031, GIBCO), the cells were directly incubated with anti-HLA-A 0201 FITC monoclonal antibody and incubated at 4 C for 30 minutes. The mean fluorescence intensity (MFI) was then detected and analyzed by flow cytometry (BD FACSJazz™) and its software, as shown in FIG. 1.
The fluorescence index (FI) is calculated using the following formula: FI=[Mean Fluorescence Intensity (MFI)sample−MFIbackground]/MFIbackground, wherein the MFIbackground represents the value without the polypeptide.

CD8+ T cells [1] = assay: Cell expansion of CD8+ T cells stimulated by polypeptide-loaded DCs in vitro; format: cell-based, human; settings: day 10 of co-culture of CD8+ T cells with polypeptide-loaded DCs; 2.5 × 10^6 cells before culture
Description: Dendritic cells (DCs) derived from monocytes were used as antigen presenting cells (APCs) to induce CTL responses against peptides presented on HLA. 2×10^8 peripheral blood mononuclear cells (PBMC) were isolated from 100 ml of peripheral blood of healthy volunteers with positive HLA-A0201 subtype using Ficoll lymphocyte separation solution (Cat. No. 17-1440-02, GE Healthcare). Mononuclear cells were obtained by adherent culture (3 hours), and CD8+ T cells in PBMC cells were screened with CD8 magnetic beads. GM-CSF (1000 U/ml) and IL-4 (1000 U/ml) were used to induce adherent monocytes into immature DCs, then IFN-γ (100 U/ml), LPS (10 ng/ml), and the polypeptides of the present invention as set forth in SEQ ID NOs: 2-5 were used to induce adherent cells into mature DC cells. The mature DC cells loaded with the polypeptides were irradiated (dose of 25 Gy) and co-cultured with CD8+ T cells of the volunteers (DC density was 5×10^5 cells/ml, CD8+ T cell density was 2×10^6 cells/ml, both of DCs and CD8+ T cells were mixed in equal volume and added to the well plate, i.e., co-cultured) with IL-21 added, then IL-2 and IL-7 were replenished after 3 days, and then IL-2 and IL-7 were replenished once on day 5 and 7, respectively. Co-cultured cells (co-cultured CD8+ T cells were activated to polypeptide-specific CD8+ T cells) were counted on day 10.

CD8+ T cells [2] = assay: IFN-γ ELISPOTs, activation of CD8+ T cell immune response; format: cell-based, human; settings: for Number of spots in the mutated polypeptide group / Number of spots in the wild type polypeptide group: CD8+ T cells primed with DCs loaded with the polypeptide, 20 hours; for Number of spots in the mutated polypeptide group: T2 cells loaded with mutated polypeptide; for Number of spots in the wild type polypeptide group: T2 cells loaded with wild type polypeptide KLMGIVNKV; for Conclusion (immunogenicity): IFN-γ ELISPOTs; for Folds (test/wild type): ratio of spot numbers, >2 = immunogenic
Text: The principle of ELISPOTs detection method is that CD8+ T cells can specifically recognize the complex of HLA-A0201 and a polypeptide, and with different polypeptide sequence, the T cell population recognizing the complex of HLA-A0201 and the polypeptide is also different. As T2 cells express HLA-A0201, CD8+ T cells can specifically recognize T2 cells loaded with mutated polypeptides, but cannot recognize T2 cells loaded with wild-type polypeptide. After specifically recognizing the complex of HLA-A0201 and the polypeptide, the polypeptide-specific CD8+ T cells are able to reactivate and secrete IFN-γ. The IFN-γ secreted by activation of CD8+ T cells is captured by a biotin-labeled secondary antibody. It is then bound to alkaline phosphatase or peroxide horseradish oxidase-labeled streptavidin. Spots are formed by the color development of the substrate. The number of spots represents the number of cells that are activated to secrete IFN-γ.
The cells co-cultured in Example 4 and T2 cells loaded with the mutated polypeptides or the wild-type polypeptide were added into human IFN-γ ELISPOTs plates for culture and detection. The spots formed by the ELISPOT test were finally counted. The requirement for the test polypeptide to be immunogenic is as follows: the number of spots (test polypeptide)/the number of spots (wild type polypeptide)>2, that is, the number of spots formed by the test polypeptide is more than twice the number of spots formed by the wild type polypeptide.
The cells co-cultured in Example 4 and T2 cells loaded with the mutated polypeptide […] (SEQ ID NO: 2) and its variable formats (SEQ ID NOs: 2-5) and the wild type polypeptide […] (SEQ ID NO: 6) were added into human IFN-γ ELISPOTs plates for culture, and subjected to ELISPOTs test (Mabtech, Cat. No. 3420-4APW-2) 20 hours later.

T2 cells = assay: LDH release assay, specific killing activity of CD8+ T cells; format: cell-based, human; set-up: concentration or dose not given beside the values; settings: T cells activated by the labelled polypeptide, 4 hours
Description: The following experiment was carried out according to the instructions of Pierce™ LDH Cytotoxicity Assay Kit (Thermo, Cat. No. 88953). The co-cultured cells in Example 4 were co-cultured with T2 cells loaded with mutated polypeptides or wild-type polypeptide or T2 cells without any loaded polypeptides. In the experiment, the maximum release well, the volume correction well, the medium control well, the spontaneous release well, the control of different ratios of effective cells to target cells (the ratio of the number of T cells to the T2 cell) and the like were set, and three duplicate wells were set in each group, and after 4 hours, 50 ul of the supernatant of the co-cultured cells was collected and added to 50 ul of LDH substrate mixture to catalyze the reaction of LDH substrate. After 30 minutes, 50 ul of reaction stop solution was added and read the 490 nm wavelength and the reference wavelength of 680 nm, and the killing activity of target cells against T2 cells were calculated based on the control wells.
The formula for calculating the killing activity is: Killing efficiency (%)=(test well−spontaneous release of effector cell−spontaneous release of target cell+medium well)/(maximum release of target cell−volume correction well−spontaneous release of target cell+medium well)×100%

[3] = test system: H2087-KLMGIVYKV subcutaneous tumor; assay: Lentivirus (nucleic acid) transfected DC vaccine in H2087-[…] subcutaneous tumor model; format: in vivo, NOD/SCID mice; settings: lentivirus-infected DC, intradermal, 2 weekly injections
Text: Using automated DNA synthesizer, nucleotide sequences were synthesized by ligating nucleotides one by one based on a known sequence utilizing solid phase phosphite amide method. […] The lentiviral plasmids pHBLV-Puro containing the wild type polypeptide or the mutated polypeptides were separately constructed and named as pHBLV-Puro-[…], pHBLV-Puro-[…], pHBLV-Puro-[…], pHBLV-Puro-[…], pHBLV-Puro-[…], respectively. Thereafter, the five lentiviral plasmids were co-transfected into T293 cells with the pSPAX2 and pMD2G helper plasmids, respectively, and were packaged into lentiviruses containing the wild type polypeptide or the mutated polypeptides.
The established human lung (non-small cell) adenocarcinoma cell line H2087-[…] cells were cultured in DMEM medium supplemented with 10% fetal calf serum, 100 U/mL penicillin and streptomycin in an incubator at 37° C., 5% CO2. […] After appropriate dilution, 40 μl of the cell suspension was stained with 10 μl of 0.4% Trypan Blue and microscopically counted to prepare a tumor cell suspension at a concentration of 1×10^8 cells/ml. […] Using the vernier caliper, the tumor long diameter a and the short diameter b were measured every 2-3 days, and the tumor size was calculated as follows: tumor size=a*b*b/2. […]

[4] = target T2 loaded with KLMGIVYKV (SEQ ID NO: 2)
[5] = target T2 loaded with wild type KLMGIVNKV (SEQ ID NO: 6)

| Sequence | affinity for HLA-A0201 (HLA-A0201) | Total number of cells in the well after culture (CD8+ T cells [1]) | Number of spots in the mutated polypeptide group (CD8+ T cells [2]) | Number of spots in the wild type polypeptide group (CD8+ T cells [2]) | Conclusion (immunogenicity) (CD8+ T cells [2]) | Folds (test/wild type) (CD8+ T cells [2]) | Killing efficiency, ratio of effective cells to target cells (1:1) (T2 cells; [4]) | Killing efficiency, ratio of effective cells to target cells (10:1) (T2 cells; [4]) | Killing efficiency, ratio of effective cells to target cells (1:1) (T2 cells; [5]) | Killing efficiency, ratio of effective cells to target cells (10:1) (T2 cells; [5]) | tumor suppressing effect [3] |
| --- | --- | --- | --- | --- | --- | --- | --- | --- | --- | --- | --- |
| KLMGIVYKV [9-amino-acid mutated TWIST Neighbor protein peptide (N136Y)] | does have a high affinity for HLA-A0201 | 1.32 × 10^7 | 316 | 31 | immunogenic | 10.01 | 7.69% | 38.29% | 2.33% | 5.03% |  |
| KLMGIVNKV [wild-type peptide fragment, amino acids 130-138 of the unmutated Twist neighbor protein] |  |  |  |  |  |  |  |  |  |  | no effect on the tumor |
| KMMGIVYKL | enhanced affinity for HLA-A0201 | 1.46 × 10^7 | 328 | 29 | immunogenic | 11.31 | 8.29% | 42.26% | 3.25% | 6.23% |  |
| KLMGIVYKL | enhanced affinity for HLA-A0201 | 1.63 × 10^7 | 335 | 40 | immunogenic | 8.34 | 8.76% | 44.52% | 2.17% | 4.63% |  |
| KMMGIVYKV | enhanced affinity for HLA-A0201 | 1.37 × 10^7 | 323 | 37 | immunogenic | 8.73 |  |  |  |  |  |

From US11834516B2, “Tumor-specific polypeptide and use thereof” (GENOIMMUNE THERAPEUTICS CO., LTD., priority 2016, dated 2023)
